Assay results as given in patent publication US6461598B1, “Process for conditioning hair” (Biosil Research Institute Inc., priority 2000, dated 2002).

Assay: Primary eye irritation, protocol FHSLA 16 CFR 1500.42
Type: in vivo
Settings: products tested at 25% actives
Method: Eye irritation is a major concern in the formulation of personal care products, particularly when working with quats. Primary eye irritation using the protocol outlined in FHSLA 16 CFR 1500.42 The products were tested at 25% actives.

SMILES | Primary eye irritation rating | Primary eye irritation score
CCCCCCCCCCCCCCCC[N+](CC)(CC)CC.[Cl-] [Cetyltriethyl ammonium Chloride] | Severely Irritating | 115.0
CCCCCCCCCCCCCCCC[N+](C)(C)C.[Cl-] [Cetyltrimethyl ammonium Chloride] | Severely Irritating | 106.0
CCCCCCCCCCCCCCCCCC[N+](C)(C)Cc1ccccc1.[Cl-] [Stearalkonium Chloride] | Severely Irritating | 116.5
